This test concerns P388 leukemia ip, CD2F1 mice, survival T/C. In words: NCI In Vivo Anticancer Drug Screen. Data for tumor model P388 Leukemia (intraperitoneal) in CD2F1 (CDF1) mice. The settings on record: endpoint: median survival time, higher = longer survival. Put shortly:
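Mice carrying the transplanted tumor received test compound or vehicle. Survival was recorded in each group, and the value is the treated-group measurement divided by that of the vehicle-treated control group.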

The mark [1] stands for this setting: dose: 25.0 mg/kg/injection, schedule: Q04DX003 (ip), vehicle: saline with Tween-80.
Where [2] appears, read: dose: 50.0 mg/kg/injection, schedule: Q04DX003 (ip), vehicle: saline with Tween-80.
Setting [3] is: dose: 50.0 mg/kg/injection, schedule: Q01DX005 (ip), vehicle: Klucel (hydroxypropylcellulose) (HPC).
Setting [4] is: dose: 100.0 mg/kg/injection, schedule: Q01DX005 (ip), vehicle: Klucel (hydroxypropylcellulose) (HPC).
Setting [5] is: dose: 200.0 mg/kg/injection, schedule: Q01DX005 (ip), vehicle: Klucel (hydroxypropylcellulose) (HPC).
Where [6] appears, read: dose: 100.0 mg/kg/injection, schedule: Q04DX003 (ip), vehicle: Klucel (hydroxypropylcellulose) (HPC).
[7] abbreviates: dose: 200.0 mg/kg/injection, schedule: Q04DX003 (ip), vehicle: Klucel (hydroxypropylcellulose) (HPC).
The mark [8] stands for this setting: dose: 400.0 mg/kg/injection, schedule: Q04DX003 (ip), vehicle: Klucel (hydroxypropylcellulose) (HPC).
Setting [9] is: dose: 12.5 mg/kg/injection, schedule: Q01DX009 (ip), vehicle: saline.
The mark [10] stands for this setting: dose: 25.0 mg/kg/injection, schedule: Q01DX009 (ip), vehicle: saline.
[11] abbreviates: dose: 50.0 mg/kg/injection, schedule: Q01DX009 (ip), vehicle: saline.
The mark [12] stands for this setting: dose: 100.0 mg/kg/injection, schedule: Q01DX009 (ip), vehicle: saline.
The mark [13] stands for this setting: dose: 60.0 mg/kg/injection, schedule: Q01DX005 (ip), vehicle: saline with Tween-80.
Setting [14] is: dose: 120.0 mg/kg/injection, schedule: Q01DX005 (ip), vehicle: saline with Tween-80.
Setting [15] is: dose: 240.0 mg/kg/injection, schedule: Q01DX005 (ip), vehicle: saline with Tween-80.

“And” between values parts separate entries of the source, which are not always exact repeats. Equal values may be shown once. Toxic doses and inconclusive results are not listed. Peptide text beside a SMILES is read from it. * marks the point of attachment. Cbz = O=C(OCc1ccccc1)*

Consider `CCC1CCCCN1C(=S)N/N=C(\C)c1ccccn1` (configuration not stated), for which the T/C (dose: 12.5 mg/kg/injection, schedule: Q04DX003 (ip), vehicle: saline with Tween-80) is 106 % of control; the T/C under setting [1] was 108 % of control and 115 % of control; the T/C under setting [2] was 115 % of control.
Turning to `CCOC(=O)Nc1nc2ccccc2n1CN1CCCCC1`, the T/C runs as follows: (dose: 25.0 mg/kg/injection, schedule: Q01DX005 (ip), vehicle: Klucel (hydroxypropylcellulose) (HPC)) 97 % of control; under setting [3], 100 % of control; under setting [4], 106 % of control; under setting [5], 115 % of control.
Regarding `NC(=O)c1ccccc1NCCc1ccccc1`, the T/C is, setting by setting: under setting [1], 91 % of control; under setting [2], 100 % of control; (dose: 100.0 mg/kg/injection, schedule: Q04DX003 (ip), vehicle: saline with Tween-80) 104 % of control and 97 % of control; (dose: 400.0 mg/kg/injection, schedule: Q04DX003 (ip), vehicle: saline with Tween-80) 97 % of control.
As to `O=[N+]([O-])C(CO)CCC(CO)[N+](=O)[O-]` (configuration not stated), the T/C under setting [6] was 96 % of control, the T/C under setting [7] was 98 % of control and the T/C under setting [8] is 88 % of control.
Consider `Nc1cc2c(c[n+](CCCCCCC[n+]3cc4c5ccccc5c(N)cc4c4ccccc43)c3ccccc23)c2ccccc12`, for which the T/C is, setting by setting: (dose: 1.56 mg/kg/injection, schedule: Q04DX003 (ip), vehicle: other) 150 % of control and 153 % of control; (dose: 3.13 mg/kg/injection, schedule: Q04DX003 (ip), vehicle: other) 155 % of control; (dose: 6.25 mg/kg/injection, schedule: Q04DX003 (ip), vehicle: other) 150 % of control and 173 % of control; (dose: 12.5 mg/kg/injection, schedule: Q04DX003 (ip), vehicle: other) 166 % of control and 180 % of control.
Consider `CN(C)CCCOc1ccc(NC2=C(Cl)C(=O)C(Nc3ccc(OCCCN(C)C)cc3)=C(Cl)C2=O)cc1`, for which the T/C was 101 % of control (dose: 6.25 mg/kg/injection, schedule: Q01DX005 (ip), vehicle: suspension in saline); 101 % of control (dose: 12.5 mg/kg/injection, schedule: Q01DX005 (ip), vehicle: suspension in saline); 103 % of control (dose: 25.0 mg/kg/injection, schedule: Q01DX005 (ip), vehicle: suspension in saline).
On to `Cc1cc(NC(=O)c2ccc(NC(=O)c3ccc(N)cc3)cc2)ccc1N=Nc1ccc2c(O)c(N=Nc3ccc4cc(S(=O)(=O)O)ccc4c3)c(S(=O)(=O)O)cc2c1`, for which the T/C was 94 % of control (dose: 50.0 mg/kg/injection, schedule: Q01DX005 (ip), vehicle: saline with Tween-80); 103 % of control (dose: 100.0 mg/kg/injection, schedule: Q01DX005 (ip), vehicle: saline with Tween-80); 94 % of control (dose: 200.0 mg/kg/injection, schedule: Q01DX005 (ip), vehicle: saline with Tween-80).
`CC1=NN(C(=O)c2ccncc2)C(=O)C1N=Nc1ccc(C)cc1` (configuration not stated): the T/C was 105 % of control (dose: 50.0 mg/kg/injection, schedule: Q01DX009 (ip), vehicle: saline with Tween-80); 101 % of control (dose: 100.0 mg/kg/injection, schedule: Q01DX009 (ip), vehicle: saline with Tween-80); 99 % of control (dose: 200.0 mg/kg/injection, schedule: Q01DX009 (ip), vehicle: saline with Tween-80).
Take `CCCCCC(CN(C)C)C(=O)/C=C/c1ccc(O)cc1` (configuration not stated): the T/C is, setting by setting: under setting [9], 88 % of control; under setting [10], 89 % of control; under setting [11], 101 % of control and 93 % of control; under setting [12], 113 % of control.
On to `CC1C[N+]2(CNC(=O)C3=C(O)C4(O)C(=O)C5=C(O)c6c(O)cccc6C(C)(O)C5CC4C(N(C)C)C3=O)CC(C)O[B-]2(c2ccccc2)O1` (configuration not stated), for which the T/C is, setting by setting: under setting [3], 110 % of control; under setting [4], 110 % of control; under setting [5], 100 % of control.
Regarding `ClCCc1ccn[nH]1`, the T/C is 97 % of control (dose: 100.0 mg/kg/injection, schedule: Q04DX002 (ip), vehicle: saline) and 99 % of control (dose: 200.0 mg/kg/injection, schedule: Q04DX002 (ip), vehicle: saline).
`CCOC(=S)SC1CC2(C)C(CCC3C2CCC2(C)C(OC(C)=O)CCC32)CC1=O` (configuration not stated): the T/C was 96 % of control (dose: 100.0 mg/kg/injection, schedule: Q04DX003 (ip), vehicle: saline); 92 % of control (dose: 200.0 mg/kg/injection, schedule: Q04DX003 (ip), vehicle: saline); 89 % of control (dose: 400.0 mg/kg/injection, schedule: Q04DX003 (ip), vehicle: saline).
As for `COC(=O)c1cn(NS(=O)(=O)c2ccc(OC)cc2)cc1C(=O)OC`, the T/C is, setting by setting: under setting [13], 96 % of control; under setting [14], 101 % of control; under setting [15], 104 % of control.
Regarding `O=C(SC(O)c1ccc([N+](=O)[O-])cc1)c1ccccc1` (configuration not stated), the T/C by setting is: under setting [6], 101 % of control; under setting [7], 106 % of control; under setting [8], 101 % of control.
In the case of `COc1cccc2c1C(=O)c1c(O)c3c(c(O)c1C2=O)CC(O)(C(C)O)CC3OC1CCN(c2ccccc2)CC(C)O1` (configuration not stated), the T/C was 103 % of control (dose: 3.13 mg/kg/injection, schedule: Q04DX003 (ip), vehicle: distilled water + Tween-80); 100 % of control (dose: 6.25 mg/kg/injection, schedule: Q04DX003 (ip), vehicle: distilled water + Tween-80); 108 % of control (dose: 12.5 mg/kg/injection, schedule: Q04DX003 (ip), vehicle: distilled water + Tween-80); 105 % of control (dose: 25.0 mg/kg/injection, schedule: Q04DX003 (ip), vehicle: distilled water + Tween-80); 104 % of control (dose: 50.0 mg/kg/injection, schedule: Q04DX003 (ip), vehicle: distilled water + Tween-80); 105 % of control (dose: 100.0 mg/kg/injection, schedule: Q04DX003 (ip), vehicle: distilled water + Tween-80). Also, the T/C (dose: 200.0 mg/kg/injection, schedule: Q04DX003 (ip), vehicle: distilled water + Tween-80) is 124 % of control and the T/C (dose: 400.0 mg/kg/injection, schedule: Q04DX003 (ip), vehicle: distilled water + Tween-80) was 101 % of control.
On to `COC(=O)C(CO)NC(=O)C(CO)NC(=O)OCc1ccccc1` (stereo not drawn) (Cbz-Ser-Ser-OMe; configuration not given here), for which the T/C by setting is: under setting [3], 100 % of control; under setting [4], 98 % of control; under setting [5], 101 % of control.
`CCOC(=O)N1CCc2[nH]oc(=O)c2CC1`: the T/C (dose: 6.25 mg/kg/injection, schedule: Q01DX009 (ip), vehicle: saline) is 101 % of control and 107 % of control; the T/C under setting [9] was 110 % of control and 95 % of control; the T/C under setting [10] is 99 % of control.
In the case of `CCOC(=O)C(c1ccccc1)c1cccc(C(C(=O)OCC)c2ccccc2)n1` (configuration not stated), the T/C runs as follows: under setting [13], 93 % of control; under setting [14], 90 % of control; under setting [15], 87 % of control.
As for `CCCc1[nH]n(-c2ccccc2)c(=O)c1N=Nc1cccc(C(F)(F)F)c1`, the T/C under setting [11] is 93 % of control; the T/C under setting [12] was 96 % of control; the T/C (dose: 200.0 mg/kg/injection, schedule: Q01DX009 (ip), vehicle: saline) is 90 % of control.
With `O=C(c1ccccc1)c1nonc1C(=O)c1ccccc1`, the T/C is 95 % of control (dose: 100.0 mg/kg/injection, schedule: Q01DX001 (ip), vehicle: saline with Tween-80); 104 % of control (dose: 200.0 mg/kg/injection, schedule: Q01DX001 (ip), vehicle: saline with Tween-80); 95 % of control (dose: 400.0 mg/kg/injection, schedule: Q01DX001 (ip), vehicle: saline with Tween-80).
On to `CC(=O)CC(=O)C(F)(F)F.CC(=O)CC(=O)C(F)(F)F.CC(=O)CC(=O)C(F)(F)F.[Sm]`, for which the T/C was 96 % of control (dose: 50.0 mg/kg/injection, schedule: Q01DX009 (ip), vehicle: Klucel (hydroxypropylcellulose) (HPC)); 94 % of control (dose: 100.0 mg/kg/injection, schedule: Q01DX009 (ip), vehicle: Klucel (hydroxypropylcellulose) (HPC)); 93 % of control (dose: 200.0 mg/kg/injection, schedule: Q01DX009 (ip), vehicle: Klucel (hydroxypropylcellulose) (HPC)); 94 % of control (dose: 400.0 mg/kg/injection, schedule: Q01DX009 (ip), vehicle: Klucel (hydroxypropylcellulose) (HPC)).

For the origin of these results see PubChem BioAssay AID330 (DTP/NCI, 2004).
